Reference: PubChem BioAssay (NCI)
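Step 1: Grow cells in 96-well plates. Step 2: Expose to compound for 48 hours at 5 concentrations. Step 3: Interpolate endpoints linearly; if unreached, use highest concentration. At the TGI there is no net growth.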 *1 amine or outer side, *2 acyl side, *3 side chain or, on linkers, in order; H or OH if unused. Where a SMILES comes first, the peptide text is derived from it. Bridges are numbered along the chain shown (N, C = ends). Roman numbers before positions name the chains, in order. [ ]: non-standard residue; d: D form. Actinocin(9to1) = Cc1c2oc3c(C)ccc(C(=O)[*:1])c3nc-2c(C(=O)[*:2])c(N)c1=O; X48 = O=C1CC(C(=O)[*:2])N([*:1])C1; NMeV = CN[CH](C(=O)O)C(C)C; Sar = CNCC(=O)O

Legend:
Assay in all cases: NCI anticancer screen, dose series, 48 h
A549 NSCLC = tested on: A549 NSCLC
HL-60(TB) leukemia = tested on: HL-60(TB) leukemia
MDA-N = tested on: MDA-N
MDA-MB-435 = tested on: MDA-MB-435
NCI-H226 lung = tested on: NCI-H226 lung
T-47D breast = tested on: T-47D breast
U251 CNS = tested on: U251 CNS
HOP-62 NSCLC = tested on: HOP-62 NSCLC
HS 578T breast = tested on: HS 578T breast
LOX IMVI melanoma = tested on: LOX IMVI melanoma
SW-620 colon = tested on: SW-620 colon
A498 renal = tested on: A498 renal
SF-295 CNS = tested on: SF-295 CNS
IGROV1 ovarian = tested on: IGROV1 ovarian
SR leukemia = tested on: SR leukemia
NCI-H23 lung = tested on: NCI-H23 lung
OVCAR-8 ovarian = tested on: OVCAR-8 ovarian
MOLT-4 leukemia = tested on: MOLT-4 leukemia
RXF 393 renal = tested on: RXF 393 renal
MDA-MB-231 breast = tested on: MDA-MB-231 breast

| SMILES | TGI (A549 NSCLC) [µM] | TGI (HL-60(TB) leukemia) [µM] | TGI (MDA-N) [µM] | TGI (MDA-MB-435) [µM] | TGI (NCI-H226 lung) [µM] | TGI (T-47D breast) [µM] | TGI (U251 CNS) [µM] | TGI (HOP-62 NSCLC) [µM] | TGI (HS 578T breast) [µM] | TGI (LOX IMVI melanoma) [µM] | TGI (SW-620 colon) [µM] | TGI (A498 renal) [µM] | TGI (SF-295 CNS) [µM] | TGI (IGROV1 ovarian) [µM] | TGI (SR leukemia) [µM] | TGI (NCI-H23 lung) [µM] | TGI (OVCAR-8 ovarian) [µM] | TGI (MOLT-4 leukemia) [µM] | TGI (RXF 393 renal) [µM] | TGI (MDA-MB-231 breast) [µM] |
| --- | --- | --- | --- | --- | --- | --- | --- | --- | --- | --- | --- | --- | --- | --- | --- | --- | --- | --- | --- | --- |
| NCC#CCNCCCN1CC1 | > 100 | > 100 | > 100 | > 100 | > 100 | > 100 | > 100 | > 100 | > 100 | > 100 | > 100 | > 100 | > 100 | > 100 | > 100 | > 100 | > 100 |  |  |  |
| CC1(C)C=C(/C=N/Nc2ccc([N+](=O)[O-])cc2)C(C#N)=C(O)C1(C#N)C#N | > 100 | > 100 | > 100 | > 100 | > 100 | > 100 | > 100 | > 100 | > 100 | > 100 | > 100 |  | > 100 | > 100 | > 100 | > 100 | > 100 | > 100 | > 100 | > 100 |
| CCCCOC(=O)C1CN2C=CC=NC2=NC1(C(F)(F)F)C(F)(F)F (stereo unspecified) | > 100 | > 100 | > 100 | > 100 | > 100 | > 100 | > 100 | > 100 | > 100 | > 100 | > 100 | > 100 | > 100 | > 100 |  | > 100 | > 100 | > 100 | > 100 | > 100 |
| COC(=O)C(=O)c1c2ccccc2n2ccc3c4ccccc4[nH]c3c12 | > 10 | > 10 | > 10 | > 10 | > 10 | > 10 | > 10 | > 10 | > 10 | > 10 | > 10 |  | > 10 | > 10 | > 10 | > 10 | > 10 | > 10 | > 10 | > 10 |
| Cc1c2oc3c(C)ccc(C(=O)NC4C(=O)NC(C(C)C)C(=O)N5CC(=O)CC5C(=O)N(C)CC(=O)N(C)C(C(C)C)C(=O)OC4C)c3nc-2c(C(=O)NC2C(=O)NC(C(C)C)C(=O)N3CC(=O)CC3C(=O)N(C)CC(=O)N(C)C(C(C)C)C(=O)OC2C)c(N)c1=O (stereo unspecified) (I: TV[X48][Sar][NMeV] / II: TV[X48][Sar][NMeV]; ester I:1-I:C, II:1-II:C; linker I:N-II:N via Actinocin(9to1); configuration not given here) | > 1 | > 1 | > 1 | > 1 | > 1 | > 1 | > 1 | > 1 |  | > 1 | > 1 | > 1 | > 1 | > 1 | > 1 | > 1 | > 1 | > 1 | > 1 | > 1 |
| C=C(C)CC1=C(OCC)C(OC)(OCC)C1=O (stereo unspecified) | > 100 | > 100 | > 100 | > 100 | > 100 | > 100 | > 100 | > 100 | > 100 | > 100 | > 100 | > 100 | > 100 | > 100 |  | > 100 | > 100 | > 100 |  | > 100 |
| CCOC(=O)n1[nH]c(=O)n(-c2ccccc2)c1=O | > 100 | > 100 | > 100 | > 100 | > 100 | > 100 | > 100 | > 100 | > 100 | > 100 | > 100 |  | > 100 | > 100 | > 100 | > 100 | > 100 | > 100 | > 100 | > 100 |
| CCOC(=O)C(NC(=O)c1ccccc1)(Nc1ccc(S(=O)(=O)Nc2nc(C)cc(C)n2)cc1)C(F)(F)F (stereo unspecified) | > 100 | > 100 | > 100 | > 100 | > 100 | > 100 | > 100 | > 100 | > 100 | > 100 | > 100 |  | > 100 | > 100 | > 100 | > 100 | > 100 | > 100 | > 100 | > 100 |
| CC(=O)Nc1ccc(C(=O)NN2C(=O)C(Cl)C2c2cc(Br)ccc2O)cc1 (stereo unspecified) | > 100 | > 54.2 | > 100 | > 100 | 36.1 | > 100 | > 100 | > 100 | > 100 |  | > 100 |  | > 100 | > 100 | > 100 | > 100 | > 100 | > 100 |  | > 100 |
